What was measured:
Parameters in all cases: purchased Milipore (Millipore)
[1] = biological target: T1, Human adrenergic α2B receptor (Homo sapiens, UniProt P18089); experiment: Radioligand binding, adrenergic α2B (Protocol Group B); settings: Protocol Group B; for Percentage inhibition of ligand binding, Adrenergic α2B (10 nM): 10 nM compound, 0.01 µM; for Percentage inhibition of ligand binding, Adrenergic α2B (30 nM): 30 nM compound, 0.03 µM; for Percentage inhibition of ligand binding, Adrenergic α2B (0.1 μM): 0.1 μM compound
T1 sequence (P18089 1-450): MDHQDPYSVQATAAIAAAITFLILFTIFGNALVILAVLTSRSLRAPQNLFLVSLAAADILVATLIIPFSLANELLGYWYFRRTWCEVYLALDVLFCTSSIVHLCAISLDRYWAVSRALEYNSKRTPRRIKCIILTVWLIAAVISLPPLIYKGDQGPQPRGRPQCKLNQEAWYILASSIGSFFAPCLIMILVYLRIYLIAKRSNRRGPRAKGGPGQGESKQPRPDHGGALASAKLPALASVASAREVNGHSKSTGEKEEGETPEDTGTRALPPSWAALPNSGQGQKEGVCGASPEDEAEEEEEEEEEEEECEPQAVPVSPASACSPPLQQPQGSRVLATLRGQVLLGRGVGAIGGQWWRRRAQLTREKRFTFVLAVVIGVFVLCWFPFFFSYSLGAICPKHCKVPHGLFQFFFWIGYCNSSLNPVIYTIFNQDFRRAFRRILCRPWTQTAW
Outline: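 Recombinant human α2B receptor membranes incubated with compounds in 50 mM Tris-HCl pH 7.4, 5 mM MgCl2, 1 mM CaCl2, 0.2% BSA, 1% DMSO vehicle. Non-specific binding defined with 10 μM rauwolscine. Values are percent inhibition of specific binding or estimated Ki.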

[2] = biological target: T2, Human adrenergic α2A receptor (Homo sapiens, UniProt P08913); experiment: Radioligand binding, adrenergic α2A (Protocol Group B); settings: Protocol Group B; for Percentage inhibition of ligand binding, Adrenergic α2A (0.3 μM) / inhibition at 0.3 µM: 0.3 μM compound; for inhibition at 0.3 µM: read-out: Percentage inhibition of ligand binding, Adrenergic α2A (0.3 μM)
T2 sequence (P08913 1-465): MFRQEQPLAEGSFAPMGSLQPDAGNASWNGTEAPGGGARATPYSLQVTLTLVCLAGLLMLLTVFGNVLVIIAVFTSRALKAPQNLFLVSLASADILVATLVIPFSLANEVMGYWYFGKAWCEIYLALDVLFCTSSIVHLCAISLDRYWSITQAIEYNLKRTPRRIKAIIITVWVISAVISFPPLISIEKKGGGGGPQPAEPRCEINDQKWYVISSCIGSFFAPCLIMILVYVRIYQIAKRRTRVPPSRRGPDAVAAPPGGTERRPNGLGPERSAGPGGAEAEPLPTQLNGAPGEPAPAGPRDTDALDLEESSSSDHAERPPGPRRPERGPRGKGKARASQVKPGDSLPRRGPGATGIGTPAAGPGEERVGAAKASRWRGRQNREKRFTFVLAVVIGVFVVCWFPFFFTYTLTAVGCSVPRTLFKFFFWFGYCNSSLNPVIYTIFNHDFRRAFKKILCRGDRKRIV
Outline: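 Membranes from recombinant cells expressing the receptor, in 50 mM Tris-HCl pH 7.4 with 5 mM MgCl2, 1 mM CaCl2, 0.2% BSA; compounds incubated with 2 nM [^3H]MK-912 for 60 min at 25° C. Nonspecific binding defined by 10 μM rauwolscine; filtration, counting; percent inhibition of specific binding, or estimated Ki.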

[3] = biological target: T3, Human adrenergic α1B receptor (Homo sapiens, UniProt P35368); experiment: Radioligand binding, adrenergic α1B (Protocol Group B); settings: Protocol Group B; for Percentage inhibition of ligand binding, Adrenergic α1B (0.3 μM) / inhibition at 0.3 µM: 0.3 μM compound; for inhibition at 0.3 µM: read-out: Percentage inhibition of ligand binding, Adrenergic α1B (0.3 μM)
T3 sequence (P35368 1-520): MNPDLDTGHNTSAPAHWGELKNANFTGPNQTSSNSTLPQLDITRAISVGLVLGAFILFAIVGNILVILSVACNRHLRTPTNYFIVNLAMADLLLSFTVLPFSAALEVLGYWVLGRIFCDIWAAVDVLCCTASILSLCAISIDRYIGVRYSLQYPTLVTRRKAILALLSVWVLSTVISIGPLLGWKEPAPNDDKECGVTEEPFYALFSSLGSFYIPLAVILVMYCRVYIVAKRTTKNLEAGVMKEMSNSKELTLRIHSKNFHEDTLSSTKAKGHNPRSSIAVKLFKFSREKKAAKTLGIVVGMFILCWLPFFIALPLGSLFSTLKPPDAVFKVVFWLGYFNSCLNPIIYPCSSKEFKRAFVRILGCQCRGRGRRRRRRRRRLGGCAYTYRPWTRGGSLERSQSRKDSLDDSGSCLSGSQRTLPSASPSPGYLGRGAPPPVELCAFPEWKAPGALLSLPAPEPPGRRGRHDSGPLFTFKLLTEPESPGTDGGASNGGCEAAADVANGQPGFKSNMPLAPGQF
Outline: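 Recombinant human α1B membranes incubated with test compound and 0.3 nM [3H]prazosin, 60 min at 25 °C, in 50 mM Tris-HCl pH 7.4, 10 mM MgCl2, 1 mM EDTA; nonspecific binding with 10 μM prazosin. Filter-bound radioactivity counted; values are % inhibition of specific binding or estimated Ki.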

SMILES | Percentage inhibition of ligand binding, Adrenergic α2B (30 nM) [1] [%] | Percentage inhibition of ligand binding, Adrenergic α2A (0.1 μM) ([2]; 0.1 μM compound) [%] | Percentage inhibition of ligand binding, Adrenergic α1B (0.1 μM) ([3]; 0.1 μM compound) [%] | Percentage inhibition of ligand binding, Adrenergic α2B (10 nM) [1] [%] | Percentage inhibition of ligand binding, Adrenergic α2A (0.3 μM) [2] [%] | Percentage inhibition of ligand binding, Adrenergic α1B (0.3 μM) [3] [%] | inhibition at 0.3 µM [2] [%] | inhibition at 0.3 µM [3] [%] | Ki ([1]; Ki α2B, estimated Ki) [nM] | inhibition at 0.01 µM ([1]; read-out: Percentage inhibition of ligand binding, Adrenergic α2B (10 nM), 10 nM compound) [%] | inhibition at 0.03 µM ([1]; read-out: Percentage inhibition of ligand binding, Adrenergic α2B (30 nM), 30 nM compound) [%] | inhibition at 0.1 µM ([1]; read-out: Percentage inhibition of ligand binding, Adrenergic α2B (0.1 μM), 0.1 μM compound) [%] | inhibition at 0.1 µM ([2]; 0.1 μM compound, read-out: Percentage inhibition of ligand binding, Adrenergic α2A (0.1 μM)) [%] | inhibition at 0.1 µM ([3]; 0.1 μM compound, read-out: Percentage inhibition of ligand binding, Adrenergic α1B (0.1 μM)) [%] | Percentage inhibition of ligand binding, Adrenergic α2B (0.1 μM) [1] [%]
CC(O)(Cn1c2c(c3cc(Cl)cc(F)c31)CN1CCCC1C2)c1ccncc1 (single isomer, unassigned) [86d] | 28 | 7 | 3 | 13 | 11 | 13 |  |  |  |  |  |  |  |  | 
CC(O)(Cn1c2c(c3cc(F)cc(Cl)c31)C1CCCN1CC2)c1cccnc1 (single isomer, unassigned) [89a] | −9 | 23 | 12 | −9 |  |  | 9 | 13 |  |  |  |  |  |  | 
CC(O)(Cn1c2c(c3cc(F)cc(Cl)c31)C1CCCN1CC2)c1cccnc1 (single isomer, unassigned) [89b] | 1 | 8 | 3 | 0 | 6 | 9 |  |  |  |  |  |  |  |  | 
Cc1cc(Cl)c2c(c1)c1c(n2CC(C)(O)c2ccncc2)CCN2CCCC12 (single isomer, unassigned) [91c] | −4 | −14 | −20 | −16 | −3 | −7 |  |  |  |  |  |  |  |  | 
Cc1cc(Cl)c2c(c1)c1c(n2CC(C)(O)c2ccncc2)CCN2CCCC12 (single isomer, unassigned) [91d] | 24 | −2 | −19 | −1 | 11 | 6 |  |  |  |  |  |  |  |  | 
Cc1ccc2c(c1)c1c(n2CC(C)(O)c2cccnc2)CC2CCC1N2C (single isomer, unassigned) [101a] |  |  |  |  |  |  | 21 | 17 | 16.2 | 23 | 38 | 71 | 7 | 6 | 
Cc1ccc2c(c1)c1c(n2CC(C)(O)c2cccnc2)CC2CCC1N2C (single isomer, unassigned) [101b] | 3 | 1 | −3 | 2 | 8 |  |  | 5 |  |  |  |  |  |  | 32
Cc1ccc2c(c1)c1c(n2CC(C)(O)c2cccnc2)CC2CCC1N2C (single isomer, unassigned) [101c] | 5 | 6 | 12 | 7 | 7 | 7 |  |  |  |  |  |  |  |  | 16
Cc1ccc2c(c1)c1c(n2CC(C)(O)c2cccnc2)CC2CCC1N2C (single isomer, unassigned) [101d] | −3 | −10 | 4 | −2 | 3 | 8 |  |  |  |  |  |  |  |  | 9
Cc1ccc2c(c1)c1c(n2CC(C)(O)c2ccc(F)cc2)CC2CCC1N2C (single isomer, unassigned) [102a] | 13 | −8 | 5 | 2 | 5 | 22 |  |  |  |  |  |  |  |  | 38
Cc1ccc2c(c1)c1c(n2CC(C)(O)c2ccc(F)cc2)CC2CCC1N2C (single isomer, unassigned) [102c] | −5 | −12 | −4 | −14 | −5 | 5 |  |  |  |  |  |  |  |  | −8
Cc1ccc2c(c1)c1c(n2CC(C)(O)c2ccc(F)cc2)CC2CCC1N2C (single isomer, unassigned) [102d] | 6 | −8 | −1 | −8 | 4 | −5 |  |  |  |  |  |  |  |  | −8

Second part, led by results:

Percentage inhibition of ligand binding, Adrenergic α2B (30 nM) [1] [%] | Percentage inhibition of ligand binding, Adrenergic α2A (0.1 μM) ([2]; 0.1 μM compound) [%] | Percentage inhibition of ligand binding, Adrenergic α1B (0.1 μM) ([3]; 0.1 μM compound) [%] | SMILES | Percentage inhibition of ligand binding, Adrenergic α2B (10 nM) [1] [%] | Percentage inhibition of ligand binding, Adrenergic α2A (0.3 μM) [2] [%] | Percentage inhibition of ligand binding, Adrenergic α1B (0.3 μM) [3] [%] | inhibition at 0.3 µM [2] [%] | inhibition at 0.3 µM [3] [%] | Ki ([1]; Ki α2B, estimated Ki) [nM] | inhibition at 0.01 µM ([1]; read-out: Percentage inhibition of ligand binding, Adrenergic α2B (10 nM), 10 nM compound) [%] | inhibition at 0.03 µM ([1]; read-out: Percentage inhibition of ligand binding, Adrenergic α2B (30 nM), 30 nM compound) [%] | inhibition at 0.1 µM ([1]; read-out: Percentage inhibition of ligand binding, Adrenergic α2B (0.1 μM), 0.1 μM compound) [%] | inhibition at 0.1 µM ([2]; 0.1 μM compound, read-out: Percentage inhibition of ligand binding, Adrenergic α2A (0.1 μM)) [%] | inhibition at 0.1 µM ([3]; 0.1 μM compound, read-out: Percentage inhibition of ligand binding, Adrenergic α1B (0.1 μM)) [%] | Percentage inhibition of ligand binding, Adrenergic α2B (0.1 μM) [1] [%]
−8 | −5 | −6 | Cc1ccc2c(c1)c1c(n2CC(C)(O)c2ccc(F)cc2)CN2CCC1C2 (single isomer, unassigned) [134a] |  |  |  |  |  |  |  |  |  |  |  | 
40 | 7 | 29 | Cc1ccc2c(c1)c1c(n2CC(C)(O)c2ccc(F)cc2)CN2CCC1C2 (single isomer, unassigned) [134b] |  |  |  |  |  |  |  |  |  |  |  | 
8 | 4 | 8 | Cc1ccc2c(c1)c1c(n2CC(C)(O)c2ccc(F)cc2)CN2CCC1C2 (single isomer, unassigned) [134c] |  |  |  |  |  |  |  |  |  |  |  | 
